Laboratory results: ChEMBL document CHEMBL5030570, “Factor XI Activation Inhibitors for Treating Thrombosis, Embolisms, Hypercoagulability, and Fibrotic Changes” (ACS Med Chem Lett, 2022)

Target: Coagulation factor XI (Homo sapiens, UniProt P03951)
Assay: Inhibition of human coagulation factor 11 assessed as inhibition of factor 12a mediated activation using z-GPR-AFC measured after 60 mins by fluorescence assay

Chain of Coagulation factor XI (P03951 19-387 limits assumed): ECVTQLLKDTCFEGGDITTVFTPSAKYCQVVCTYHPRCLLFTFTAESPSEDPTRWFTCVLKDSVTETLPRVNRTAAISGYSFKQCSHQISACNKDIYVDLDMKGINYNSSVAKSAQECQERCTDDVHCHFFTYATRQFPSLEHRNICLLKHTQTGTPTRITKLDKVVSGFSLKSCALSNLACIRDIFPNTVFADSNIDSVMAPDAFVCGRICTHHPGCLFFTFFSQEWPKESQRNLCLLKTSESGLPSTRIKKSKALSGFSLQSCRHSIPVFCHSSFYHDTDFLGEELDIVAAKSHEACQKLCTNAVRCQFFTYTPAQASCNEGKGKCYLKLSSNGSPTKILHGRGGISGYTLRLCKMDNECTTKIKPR
Chain of Coagulation factor XI (P03951 388-625 limits assumed): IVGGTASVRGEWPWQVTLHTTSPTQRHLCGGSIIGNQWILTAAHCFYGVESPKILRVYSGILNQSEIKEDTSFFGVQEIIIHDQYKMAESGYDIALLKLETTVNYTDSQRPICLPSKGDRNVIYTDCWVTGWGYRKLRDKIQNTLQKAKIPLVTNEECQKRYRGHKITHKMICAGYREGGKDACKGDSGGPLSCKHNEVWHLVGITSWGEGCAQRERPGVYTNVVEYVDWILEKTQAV

EC50: 3.8 nM
SMILES: Cc1cnn(C2CCN(C(=O)c3cc(C(=O)N4CCCCC4)c4cc(OCc5ncc(C(F)(F)F)cc5Cl)ncc4c3)CC2)c1
